The subject of this experiment is target rabbit anti-LOS antibody. Description: Peptide ELISA (NucleoLink strips): synthetic peptides binding the target anti-LOS antibody. The settings on record: for Binding reactivity (OD405): 5 μg peptide coupled to strip, 0.4 μg/well target antibody, average of duplicates; for Binding reactivity of synthetic peptides to target anti-LOS antibody (in words): peptide-coated ELISA. As for the experimental part: Four peptides were synthesized with a spacer (GGGS) at each C-terminus (Genemed Synthesis, Inc., San Francisco, Calif.). Binding reactivity of the synthetic peptides to the target anti-LOS antibody was tested with a peptide ELISA using Nunc NucleoLink™ Strips (Fisher Scientific, Pittsburgh, Pa.). Following the instructions of the product with modifications, the strips were coated covalently with its amino groups to the C-terminal carboxyl groups of the synthetic peptides by a coupling reagent, [1-Ethyl-3-(3-dimethylaminopropyl) carbodiimide HCl] (EDC, Pierce). Briefly, peptides and 0.1 M 1-methyl-imidazole (Meim) (Sigma-Aldrich) at pH 7 were pre-cooled on ice, and a 100 μl of individual peptide solution with 5 μg of peptide in 10 mM MeIm was prepared in a well of strips on ice. This peptide solution (75 μl) was mixed with 25 μl of freshly prepared 0.2 M EDC in 10 mM MeIm in another well of the strips. The strips were sealed and incubated at 50° C. for 5 h. After removing the reaction mixture, the strips were soaked with washing buffer (freshly prepared 0.25% SDS in 0.4 N NaOH and warmed at 50° C.) for 5 min and emptied. This step was performed for three times, followed by another three washings without the 5-min soaking. After removing the washing buffer, the strips was washed thoroughly with deionized water. The following steps were the same as described in the LOS ELISA (Gu et al. 1996 Infect Immun 64:4047). After blocking with 1% BSA in PBS, the target anti-LOS antibody was added in the amount of 0.4 μg/well followed by a goat anti-rabbit IgG alkaline phosphatase conjugate. The binding reactivity of the synthetic peptides to the target anti-LOS antibody was evaluated by OD405 values at 30 min after adding a substrate.
In general terms: An ELISA detects its analyte on a solid surface through an enzyme-linked reagent.

From patent US7514529B2, “Peptide mimotopes of lipooligosaccharide from nontypeable Haemophilus influenzae as vaccines” (The United States of America as represented by the …, priority 2003, dated 2009) come the findings set out here.

As to NMMKYISPPIFL [Peptide 3], the “Binding reactivity (OD405)” value is 1.11 OD405 and the “Binding reactivity of synthetic peptides to target anti-LOS antibody (in words)” value (from here on “Binding reactivity of synthetic peptides”) is listed as “higher binding reactivity”.

As for “TLAHHKKPWILR [Peptide 5, control peptide from an unrelated clone, reference compound]”, the “Binding reactivity (OD405)” value was 0.33 OD405.

Consider NMMNYIMDPRTH [Peptide 2], for which the “Binding reactivity (OD405)” value came to 2.52 OD405 and the “Binding reactivity of synthetic peptides” value is reported as “higher binding reactivity”.

As for NMMRFTELSTPS [Peptide 4], the “Binding reactivity (OD405)” value is listed as 0.99 OD405 and the “Binding reactivity of synthetic peptides” value is “higher binding reactivity”.

Turning to NMMRFTSQPPNN [Peptide 1], the “Binding reactivity (OD405)” value is listed as 0.40 OD405 and the “Binding reactivity of synthetic peptides” value is recorded as “did not show good antigenic mimic of the LOS”.
